{"source": "ChEMBL document CHEMBL5512671", "about": "“Structure-Based Optimization of Novel Sterol 24-C-Methyltransferase Inhibitors for the Treatment of Candida albicans Infections” (J Med Chem, 2024)", "key": {"[1]": {"experiment": "Cytotoxicity against human HUVEC cells incubated for 48 hrs by CCK-8 method", "type": "toxicity, cell-based"}, "[2]": {"system": "Candida albicans", "experiment": "Upregulation of PDE2 gene level in Candida albicans SC5314 at 1 ug/ml incubated for 6 hrs by qPCR analysis", "type": "functional", "details": "dose 1.0 µg/ml"}, "[3]": {"system": "Candida albicans", "experiment": "Downregulation of UME6 expression in Candida albicans SC5314 at 1 ug/ml incubated for 6 hrs by qPCR analysis", "type": "functional", "details": "dose 1.0 µg/ml"}, "[4]": {"system": "[Candida] auris", "experiment": "Antifungal activity against Candida auris CBS12774 assessed as inhibition of fungal growth incubated for 24 hrs by CLSI protocol based broth microdilution method", "type": "functional", "details": "Candidozyma auris"}, "[5]": {"system": "[Candida] auris", "experiment": "Antifungal activity against Candida auris CBS12774 assessed as inhibition of hyphae formation at 1 ug/ml measured after 6 hrs by microscopy based analysis", "type": "functional, organism-based", "details": "Candidozyma auris, dose 1.0 µg/ml"}, "[6]": {"system": "[Candida] auris", "experiment": "Antifungal activity against Candida auris CBS12774 assessed as effect on cell structure at 1 ug/ml measured after 6 hrs by microscopy based analysis", "type": "functional, organism-based", "details": "Candidozyma auris, dose 1.0 µg/ml"}, "[7]": {"system": "Candida parapsilosis", "experiment": "Antifungal activity against Candida parapsilosis CP1 assessed as inhibition of hyphae formation at 1 ug/ml measured after 6 hrs by microscopy based analysis", "type": "functional, organism-based", "details": "dose 1.0 µg/ml"}, "[8]": {"system": "Candida parapsilosis", "experiment": "Antifungal activity against Candida parapsilosis CP1 assessed as effect on cell size at 1 ug/ml measured after 6 hrs by microscopy based analysis", "type": "functional, organism-based", "details": "dose 1.0 µg/ml"}, "[9]": {"system": "Candida parapsilosis", "experiment": "Antifungal activity against Candida parapsilosis CP1 assessed as effect on structure at 1 ug/ml measured after 6 hrs by microscopy based analysis", "type": "functional, organism-based", "details": "dose 1.0 µg/ml"}, "[10]": {"system": "Nakaseomyces glabratus", "experiment": "Antifungal activity against Candida glabrata CG2 assessed as effect on cell size at 1 ug/ml measured after 6 hrs by microscopy based analysis", "type": "functional, organism-based", "details": "dose 1.0 µg/ml"}, "[11]": {"system": "Candida albicans", "experiment": "Synergistic antifungal activity against Candida albicans SC5314 assessed as inhibition of fungal growth incubated for 24 hrs in presence of terbinafine by broth microdilution checkerboard assay", "type": "functional"}, "[12]": {"system": "Candida albicans", "experiment": "Synergistic antifungal activity against Candida albicans SC5314 assessed as fractional inhibitory concentration index incubated for 24 hrs in presence of tridemorph by broth microdilution checkerboard assay", "type": "functional"}, "[13]": {"system": "Candida albicans", "experiment": "Fungistatic activity against Candida albicans SC5314 at 1 ug/ml incubated for 3 hrs in presence of terbinafine by SYTOX staining based analysis", "type": "functional, organism-based", "details": "dose 1.0 µg/ml"}, "[14]": {"system": "Candida albicans", "experiment": "Antifungal activity against Candida albicans SC5314 infected in Balb/C mouse candidiasis model assessed as decrease in skin fungal burden by measuring fold change at 0.5 % administered topically and measured after 72 hrs in presence of tridemorph", "type": "functional"}, "[15]": {"system": "Candida albicans", "experiment": "Antifungal activity against Candida albicans SC5314 infected in Balb/C mouse candidiasis model assessed as filamentation defect at 0.5 % administered topically and measured after 72 hrs in presence of terbinafine by PAS staining based analysis", "type": "functional, organism-based"}, "[16]": {"system": "Candida albicans", "experiment": "Antifungal activity against Candida albicans SC5314 infected in Balb/C mouse candidiasis model assessed as appearance of inflammatory infiltrates at 0.5 % administered topically and measured after 72 hrs by H and E staining based analysis", "type": "functional, organism-based"}, "[17]": {"system": "Candida albicans", "experiment": "Antifungal activity against Candida albicans SC5314 infected in Balb/C mouse candidiasis model assessed as appearance of inflammatory infiltrates at 0.5 % administered topically and measured after 72 hrs in presence of terbinafine by H and E staining based analysis", "type": "functional, organism-based"}, "[18]": {"system": "Candida albicans", "experiment": "Antifungal activity against Candida albicans CAI4/pBA1-ERG6 assessed as inhibition of hyphae growth incubated for 24 hrs by CLSI protocol based broth microdilution method", "type": "functional, organism-based"}, "[19]": {"system": "Candida albicans", "experiment": "Antifungal activity against Candida albicans SC5314 assessed as inhibition of hyphae growth measured after 5 days cultured under YPD embedded agar medium and 10mM GlcNAc by microscopy based analysis", "type": "functional, organism-based", "details": "dose 0.25-1 µg/ml, time 5.0 day"}, "[20]": {"system": "Candida albicans", "experiment": "Antifungal activity against Candida albicans SC5314 assessed as inhibition of morphological transition at 0.5 ug/ml measured after 5 days cultured under solid spider agar medium by microscopy based analysis relative to control", "type": "functional", "design": "scale not given: the % may be the effect or the level left", "details": "dose 0.5 µg/ml; time 5 day"}, "[21]": {"system": "Candida albicans", "experiment": "Inhibition of cell adhesion in Candida albicans SC5314 to human HGE cells measured after 90 mins by fluorescence microscopy based analysis", "type": "functional", "details": "dose 0.5-2 µg/ml"}}, "note": "Activity calls are given as the source filed them. The rule behind the calls is not given here."}
{"smiles": "Cc1c(-n2c(-c3ccc4ccccc4c3)cs/c2=N\\c2ccccc2)c(=O)n(-c2ccccc2)n1C", "values": [{"measurement": "EC50 at 48 h", "setting": "[1]", "value": "> 50", "unit": "µg/mL"}, {"measurement": "Activity", "setting": "[2]", "value": "Active"}, {"measurement": "Activity", "setting": "[3]", "value": "Active"}, {"measurement": "MIC", "setting": "[4]", "value": "> 128", "unit": "µg/mL"}, {"measurement": "Activity", "setting": "[5]", "value": "Active"}, {"measurement": "Activity", "setting": "[6]", "value": "inactive"}, {"measurement": "Activity", "setting": "[7]", "value": "Active"}, {"measurement": "Activity", "setting": "[8]", "value": "inactive"}, {"measurement": "Activity", "setting": "[9]", "value": "inactive"}, {"measurement": "Activity", "setting": "[10]", "value": "inactive"}, {"measurement": "MIC80", "setting": "[11]", "value": 1, "unit": "µg/mL"}, {"measurement": "fractional inhibitory concentration index (FICI)", "setting": "[12]", "value": "<0.1"}, {"measurement": "Activity", "setting": "[13]", "value": "Active"}, {"measurement": "fold change (FC)", "setting": "[14]", "value": 60.26}, {"measurement": "Activity", "setting": "[15]", "value": "Active"}, {"measurement": "Activity", "setting": "[16]", "value": "Active"}, {"measurement": "Activity", "setting": "[17]", "value": "inactive"}, {"measurement": "Activity", "setting": "[18]", "value": "Active"}, {"measurement": "Activity", "setting": "[19]", "value": "Dose-Dependent Effect"}, {"measurement": "Activity", "setting": "[20]", "value": 100, "unit": "%"}, {"measurement": "inhibition", "setting": "[21]", "value": "Dose-Dependent Effect"}]}
